Data: patent US11178869B2, “Microbiocidal quinoline (thio)carboxamide derivatives” (priority 2017, dated 2021)
Where two headings read alike, the source gives them in different places.

Key:
[1] = tested on: Monographella nivalis (Microdochium nivale); assay: Monographella nivalis (Microdochium nivale) / liquid culture (foot rot cereals); assay type: cell-based; details: 200 ppm, compared to untreated control, growth inhibition photometrically 4-5 days after application, read-out: disease control
[2] = tested on: Glomerella lagenarium (Colletotrichum lagenarium); assay: Glomerella lagenarium (Colletotrichum lagenarium) / liquid culture (anthracnose); assay type: cell-based; details: Colletotrichum orbiculare, read-out: disease control
Fusarium culmorum [3] = assay: microbe, parasite or virus in culture; assay type: cell-based; details: read-out: disease control
[4] = tested on: Botryotinia fuckeliana (Botrytis cinerea); assay: Botryotinia fuckeliana (Botrytis cinerea) / liquid culture (gray mould); assay type: cell-based; details: 72 h, 200 ppm, compared to untreated control, growth inhibition photometrically 3-4 days after application, read-out: disease control
Fusarium culmorum [5] = assay: whole plant or invertebrate; assay type: in vivo, Fusarium culmorum on wheat spikelets cv. Monsun; details: in Triticum aestivum, 144 h, read-out: control of Fusarium culmorum
[6] = 200 ppm, compared to untreated control, growth inhibition photometrically 3-4 days after application

COc1ccccc1C#CC(C)(C)NC(=O)c1cnc2c(F)cccc2c1 [Compound F-37, 8-fluoro-N-[3-(2-methoxyphenyl)-1,1-dimethyl-prop-2-ynyl]quinoline-3-carboxamide]
≥ 80%: inhibition of growth at 200 ppm [1] | inhibition of growth at 200 ppm [2, 6] | inhibition of growth at 200 ppm (Fusarium culmorum [3]) | inhibition of growth at 200 ppm [4]

CC(C)(C#Cc1ccccc1C#N)NC(=O)c1cnc2c(F)cccc2c1 [Compound F-41, N-[3-(2-cyanophenyl)-1,1-dimethyl-prop-2-ynyl]-8-fluoro-quinoline-3-carboxamide]
≥ 80%: inhibition of growth at 200 ppm [1] | inhibition of growth at 200 ppm [2, 6] | inhibition of growth at 200 ppm (Fusarium culmorum [3]) | inhibition of growth at 200 ppm [4]

C[C@@](CC#CC1CC1)(CC(F)(F)F)NC(=O)c1cnc2c(F)cccc2c1 [Compound G-1, N-[(1R)-4-cyclopropyl-1-methyl-1-(2,2,2-trifluoroethyl)but-3-ynyl]-8-fluoro-quinoline-3-carboxamide]
≥ 80%: inhibition of growth at 200 ppm [1] | inhibition of growth at 200 ppm (Fusarium culmorum [3]) | inhibition of growth at 200 ppm [4]

Cc1cc(C)cc(C#CC(C)(C)NC(=O)c2cnc3c(F)cccc3c2)c1 [Compound F-30, N-[3-(3,5-dimethylphenyl)-1,1-dimethyl-prop-2-ynyl]-8-fluoro-quinoline-3-carboxamide]
≥ 80%: inhibition of growth at 200 ppm [1] | inhibition of growth at 200 ppm [2, 6] | inhibition of growth at 200 ppm (Fusarium culmorum [3]) | inhibition of growth at 200 ppm [4]

Cc1ccc(C#N)cc1C#CC(C)(C)NC(=O)c1cnc2c(F)cccc2c1 [Compound F-19, N-[3-(5-cyano-2-methyl-phenyl)-1,1-dimethyl-prop-2-ynyl]-8-fluoro-quinoline-3-carboxamide]
≥ 80%: inhibition of growth at 200 ppm [1] | inhibition of growth at 200 ppm [2, 6] | inhibition of growth at 200 ppm (Fusarium culmorum [3]) | inhibition of growth at 200 ppm [4]

CC(C)(C#Cc1ccc(F)c(F)c1)NC(=O)c1cnc2c(F)cccc2c1 [Compound F-20, N-[3-(3,4-difluorophenyl)-1,1-dimethyl-prop-2-ynyl]-8-fluoro-quinoline-3-carboxamide]
≥ 80%: inhibition of growth at 200 ppm [1] | inhibition of growth at 200 ppm [2, 6] | inhibition of growth at 200 ppm (Fusarium culmorum [3]) | inhibition of growth at 200 ppm [4]

Cc1cccc(C#CC(C)(C)NC(=O)c2cnc3c(F)cccc3c2)c1 [Compound F-39, N-[1,1-dimethyl-3-(m-tolyl)prop-2-ynyl]-8-fluoro-quinoline-3-carboxamide]
≥ 80%: inhibition of growth at 200 ppm [1] | pest or weed control at 200 ppm (Fusarium culmorum [5]) | inhibition of growth at 200 ppm [2, 6] | inhibition of growth at 200 ppm (Fusarium culmorum [3]) | inhibition of growth at 200 ppm [4]

CC(C)(C#Cc1cc(F)cc(F)c1)NC(=O)c1cnc2c(F)cccc2c1 [Compound F-40, N-[3-(3,5-difluorophenyl)-1,1-dimethyl-prop-2-ynyl]-8-fluoro-quinoline-3-carboxamide]
≥ 80%: inhibition of growth at 200 ppm [1] | pest or weed control at 200 ppm (Fusarium culmorum [5]) | inhibition of growth at 200 ppm [2, 6] | inhibition of growth at 200 ppm (Fusarium culmorum [3]) | inhibition of growth at 200 ppm [4]

COc1ccc(C(F)(F)F)cc1C#CC(C)(C)NC(=O)c1cnc2c(F)cccc2c1 [Compound F-43, 8-fluoro-N-[3-[2-methoxy-5-(trifluoromethyl)phenyl]-1,1-dimethyl-prop-2-ynyl]quinoline-3-carboxamide]
≥ 80%: inhibition of growth at 200 ppm [2, 6] | inhibition of growth at 200 ppm (Fusarium culmorum [3]) | inhibition of growth at 200 ppm [4]

Cc1cc(C#N)ccc1C#CC(C)(C)NC(=O)c1cnc2c(F)cccc2c1 [Compound F-34, N-[3-(4-cyano-2-methyl-phenyl)-1,1-dimethyl-prop-2-ynyl]-8-fluoro-quinoline-3-carboxamide]
≥ 80%: inhibition of growth at 200 ppm [1] | inhibition of growth at 200 ppm (Fusarium culmorum [3]) | inhibition of growth at 200 ppm [4]

C[C@](CC#CC1CC1)(CC(F)(F)F)NC(=O)c1cnc2c(F)cccc2c1 [Compound G-2, N-[(1S)-4-cyclopropyl-1-methyl-1-(2,2,2-trifluoroethyl)but-3-ynyl]-8-fluoro-quinoline-3-carboxamide]
≥ 80%: inhibition of growth at 200 ppm (Fusarium culmorum [3]) | inhibition of growth at 200 ppm [4]

CC#CC(C)(C)NC(=O)c1cnc2c(F)cccc2c1 [Compound F-53, N-(1,1-dimethylbut-2-ynyl)-8-fluoro-quinoline-3-carboxamide]
≥ 80%: inhibition of growth at 200 ppm [2] | inhibition of growth at 200 ppm (Fusarium culmorum [3])

C#CCC(C)(CC(C)C)NC(=O)c1cnc2c(F)cccc2c1 (stereo not shown) [Compound E-2, 8-fluoro-N-(1-isobutyl-1-methyl-but-3-ynyl)quinoline-3-carboxamide]
≥ 80%: inhibition of growth at 200 ppm [2, 6] | inhibition of growth at 200 ppm (Fusarium culmorum [3]) | inhibition of growth at 200 ppm [4]

Cc1ccc(C#CC(C)(C)NC(=O)c2cnc3c(F)cccc3c2)c(C)c1 [Compound F-33, N-[3-(2,4-dimethylphenyl)-1,1-dimethyl-prop-2-ynyl]-8-fluoro-quinoline-3-carboxamide]
≥ 80%: inhibition of growth at 200 ppm [1] | inhibition of growth at 200 ppm [2, 6] | inhibition of growth at 200 ppm (Fusarium culmorum [3]) | inhibition of growth at 200 ppm [4]

COc1ccc(C#CC(C)(C)NC(=O)c2cnc3c(F)cccc3c2)cc1 [Compound F-28, 8-fluoro-N-[3-(4-methoxyphenyl)-1,1-dimethyl-prop-2-ynyl]quinoline-3-carboxamide]
≥ 80%: inhibition of growth at 200 ppm [1] | pest or weed control at 200 ppm (Fusarium culmorum [5]) | inhibition of growth at 200 ppm [2, 6] | inhibition of growth at 200 ppm (Fusarium culmorum [3]) | inhibition of growth at 200 ppm [4]

Cc1ccc(C)c(C#CC(C)(C)NC(=O)c2cnc3c(F)cccc3c2)c1 [Compound F-22, N-[3-(2,5-dimethylphenyl)-1,1-dimethyl-prop-2-ynyl]-8-fluoro-quinoline-3-carboxamide]
≥ 80%: inhibition of growth at 200 ppm [2, 6] | inhibition of growth at 200 ppm (Fusarium culmorum [3]) | inhibition of growth at 200 ppm [4]

CC(C)(C#Cc1ccccc1F)NC(=O)c1cnc2c(F)cccc2c1 [Compound F-18, 8-fluoro-N-[3-(2-fluorophenyl)-1,1-dimethyl-prop-2-ynyl]quinoline-3-carboxamide]
≥ 80%: inhibition of growth at 200 ppm [1] | inhibition of growth at 200 ppm [2, 6] | inhibition of growth at 200 ppm (Fusarium culmorum [3]) | inhibition of growth at 200 ppm [4]

Cc1cccc(C#CC(C)(C)NC(=O)c2cnc3c(F)cccc3c2)c1C [Compound F-26, N-[3-(2,3-dimethylphenyl)-1,1-dimethyl-prop-2-ynyl]-8-fluoro-quinoline-3-carboxamide]
≥ 80%: inhibition of growth at 200 ppm [1] | inhibition of growth at 200 ppm [2, 6] | inhibition of growth at 200 ppm (Fusarium culmorum [3]) | inhibition of growth at 200 ppm [4]

Cc1ccc(C#CC(C)(C)NC(=O)c2cnc3c(F)cccc3c2)cc1C [Compound F-32, N-[3-(3,4-dimethylphenyl)-1,1-dimethyl-prop-2-ynyl]-8-fluoro-quinoline-3-carboxamide]
≥ 80%: inhibition of growth at 200 ppm [1] | inhibition of growth at 200 ppm [2, 6] | inhibition of growth at 200 ppm (Fusarium culmorum [3]) | inhibition of growth at 200 ppm [4]

CC(C)(C#Cc1ccc(C(F)(F)F)cc1)NC(=O)c1cnc2c(F)cccc2c1 [Compound F-42, N-[1,1-dimethyl-3-[4-(trifluoromethyl)phenyl]prop-2-ynyl]-8-fluoro-quinoline-3-carboxamide]
≥ 80%: inhibition of growth at 200 ppm [1] | inhibition of growth at 200 ppm [2, 6] | inhibition of growth at 200 ppm (Fusarium culmorum [3]) | inhibition of growth at 200 ppm [4]

CC(C)(C#Cc1ccc(F)cc1)NC(=O)c1cnc2c(F)cccc2c1 [Compound F-27, 8-fluoro-N-[3-(4-fluorophenyl)-1,1-dimethyl-prop-2-ynyl]quinoline-3-carboxamide]
≥ 80%: inhibition of growth at 200 ppm [1] | inhibition of growth at 200 ppm [2, 6] | inhibition of growth at 200 ppm (Fusarium culmorum [3]) | inhibition of growth at 200 ppm [4]

CC(C)(C#Cc1cccc(C#N)c1)NC(=O)c1cnc2c(F)cccc2c1 [Compound F-36, N-[3-(3-cyanophenyl)-1,1-dimethyl-prop-2-ynyl]-8-fluoro-quinoline-3-carboxamide]
≥ 80%: inhibition of growth at 200 ppm [1] | inhibition of growth at 200 ppm (Fusarium culmorum [3]) | inhibition of growth at 200 ppm [4]

COc1cc(C#CC(C)(C)NC(=O)c2cnc3c(F)cccc3c2)ccc1Cl [Compound F-38, N-[3-(4-chloro-3-methoxy-phenyl)-1,1-dimethyl-prop-2-ynyl]-8-fluoro-quinoline-3-carboxamide]
≥ 80%: inhibition of growth at 200 ppm [1] | inhibition of growth at 200 ppm [2, 6] | inhibition of growth at 200 ppm (Fusarium culmorum [3]) | inhibition of growth at 200 ppm [4]
